Measured values reported in patent US12180084B2, “Cerium (III) carbonate formulations” (THE REGENTS OF THE UNIVERSITY OF CALIFORNIA, priority 2019, dated 2024).

What was measured:
[1] = CR dye photodegradation in TiO2-based sunscreen film (Neutrogena Broad Spectrum Mineral Sunscreen SPF 60+); details: 3.0 wt. % added agent relative to sunscreen weight
Protocol: Films on filter paper were fabricated and photoreactor experiments were conducted exactly the same way as described in Example 7.3, using CR dye, except UV irradiation in the photoreactor was conducted for a period of 4 h. These films contained either no UV-protecting agent, 3.0 wt. % of Ce2(CO3)3·6H2O that was synthesized according to Example 3, 3.0 wt. % of commercial Ce2(CO3)3·xH2O (Acros Organics), or 3.0 wt. % of ZnO (NANOBYK-3840). […] Upon adding 3 wt. % of Ce2(CO3)3·6H2O synthesized according to Example 3 to the sunscreen formulation, a decrease in the amount of CR dye photodegradation to 15±1% is observed. […] When cerium carbonate consisting of Ce2(CO3)3·xH2O from Acros Organics is instead used in place of Ce2(CO3)3·6H2O synthesized according to Example 3, photoprotection with 24±2% CR dye photodegradation is observed. The properties of Ce2(CO3)3·xH2O from Acros Organics have been ascribed in Example 4, and these aspects are borne out in conjunction with sunscreen-based formulations here as well. When instead of cerium carbonate ZnO (NANOBYK-3840) is used as a UV-protecting agent, less effect on CR dye photodegradation is observed. This is a similar outcome to observations with MB dye and ZnO-based sunscreen formulation in Example 7.2.
The amount of Ce2(CO3)3·6H2O synthesized according to Example 3 that was incorporated into the TiO2-based sunscreen was increased to 5.0 wt. %, and results are shown in FIGS. 23A-23B and are summarized in Table 4. […] There is a slight diminishing return for adding Ce2(CO3)3·6H2O both here and in Example 7.2, but the effect of increasing Ce2(CO3)3·6H2O on organic-molecule photoprotection is much more pronounced than in the case of ZnO.

[2] = MB dye photodecomposition under 254 nm light in the absence of any added photocatalyst; details: 1 mg in 10 mL 10^−5 M MB, up to 60 min, no photocatalyst
Excerpt: Though photocatalysis increases photodecomposition of organics, thought to be mediated by generation of reactive oxygen species (ROS), organic molecules have their own absorptivity of light due to presence of light-absorbing chemical substituents. This absorptivity of light can itself produce radicals in water, which even in the absence of a photocatalyst per se, can ultimately lead to photodegradation/decomposition of organics. Here it was investigated whether it was possible to reduce the inherent photodecomposition/degradation of methylene blue (MB) dye under exposure to 254 nm light, by using cerium (III) carbonate, in the absence of any added photocatalyst.
Two separate sets of photoreactions were performed: (1) 10 mL aqueous solution of 10^−5 M MB dye was exposed to 254 nm light under a photoreactor setup for a duration of up to 60 min and (2) 1 mg Ce2(CO3)3·4H2O that was synthesized according to the procedure described in Example 3 was dispersed in a 10 mL aqueous solution of 10^−5 M MB dye, and the resulting slurry was exposed to 254 nm light under photoreactor setup for a duration of up to 60 min.

[3] = MB organic dye photodegradation in aqueous slurry with P25 photocatalyst under 254 nm light; details: 1 mg Ce2(CO3)3·4H2O versus 11.4 mg Ce (III)-R706, 2 mg P25
[4] = CR organic dye photodegradation in dried acrylic paint film under sunlight; details: 6 h sunlight
Excerpt: To investigate the effectiveness of this approach in a dry (solid) composition, Congo Red (CR) organic dye at a concentration of 3×10^−5 M was incorporated into a waterborne acrylic paint formulation dispersion, together with P25 photocatalyst (10 wt % relative to the Ti-Pure R706 pigment weight used in the dispersion).
A composition was made with 16% Ce (III)-R706 pigment volume concentration comprising CR organic dye (the pigment volume concentration is defined as the volume percentage of solid particles in the system after formation of the composition (e.g., excluding water). This was performed by first preparing a 75 wt % aqueous slurry of Ce (III)-R706 pigment by high shear mixing in presence of 0.3 wt % TAMOL™ 1124 with respect to the weight of pigment. 4.64 g of this slurry was incorporated in 12.78 g of acrylic-based BP 8164 polymer (obtained from the Dow Chemical Company), to which was added 1.966 mL of 3.5×10^−4 M CR aqueous dye solution, and 10 wt % P25 photocatalyst (with respect to pigment weight). The resulting dispersion was mixed under high-shear conditions in a high speed mixer.
Thereafter, 0.6 g of 2020E thickener (a non-ionic urethane rheology modifier) was added into the slurry, and the resulting dispersion was mixed under high-shear conditions in a high-speed mixer, to obtain the final formulation dispersion. The solid (dried) film coating was prepared with a 3 mil (1 mil=0.001 inch) bar applicator on a polyacrylic substrate and dried for 48 h prior to conducting the photocatalysis experiments. During photocatalysis, all the coatings were exposed to sunlight (under similar conditions) for an exposure period of 6 hours. Prior to sunlight exposure, 100 mg of the coating was scraped off with a sharp blade, and was extracted in 1.5 mL of absolute ethanol for UV-visible spectroscopy analysis, to obtain a datum of CR organic dye concentration in the film prior to photocatalysis. Similarly, another 100 mg portion of coating scraped off and extracted after 6 hours of sunlight exposure, and the percentage of dye degradation was calculated by UV-visible spectrophotometry.
To investigate the photopassivation effectiveness of a separate cerium (III) compound in a dry (solid) paint film coating, insoluble cerium (III) carbonate particles and CR organic dye at a concentration of 3×10^−5 M were incorporated into a waterborne acrylic paint formulation dispersion, using either Ti-Pure-R706 or the same rutile TiO2 used in Example 1 as the pigment, and assessed the rate of dye photodegradation relative to an identical dispersion, in the absence of cerium (III) carbonate particles.
The composition of this dispersion, and the procedure for synthesizing the dried coating film is described in the paragraph below. […]

Compound | % of CR dye photodegradation after 4 h of UV irradiation in photoreactor ([1]; listed as Ce2(CO3)3·xH2O from Acros Organics) | % of CR dye photodegradation after 4 h of UV irradiation in photoreactor ([1]; listed as Commercial Ce2(CO3)3•xH2O (Acros Organics)) | fold decreased rate of MB dye photodecomposition compared to control MB solution [2] | fold lower rate constant than with the same amount of cerium as Ce (III)-R706 [3] | photodegradation of CR organic dye in dried paint film ([4]; Ti-Pure R706 pigment, 2 wt. % cerium (III) carbonate relative to pigment) | photodegradation of CR organic dye in dried paint film ([4]; Ti-Pure R706 pigment, 5 wt. % cerium (III) carbonate relative to pigment) | photodegradation of CR organic dye in dried paint film ([4]; rutile TiO2 pigment, 2 wt % cerium (III) carbonate relative to pigment) | photodegradation of CR organic dye in dried paint film ([4]; rutile TiO2 pigment, 5 wt % cerium (III) carbonate relative to pigment)
Ce2(CO3)3·xH2O [Ce2(CO3)3·xH2O (ACROS Organics)] | 24±2% | 24 ± 2% | – | – | – | – | – | –
O=C([O-])[O-].O=C([O-])[O-].O=C([O-])[O-].[Ce+3].[Ce+3] [Ce2(CO3)3·4H2O] | – | – | ~40 fold | 1.5 fold | 29% | 12% | 20% | did not show any detectable CR dye photodegradation
